Data as given in the METLIN SMRT retention time set (Domingo-Almenara et al. 2019).

Assay: gradient 5% acetonitrile 3 min, to 50% in 2 min, to 85% in 15 min, held 3 min, 100 µL/min
Conditions: column: Zorbax Extend-C18 2.1 x 50 mm; eluents: water / acetonitrile, 0.1% formic acid
Procedure, shortened: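 Retention times of pure standards were taken from adduct peaks that were selected by computer and manually inspected. Over 3 months, mixtures of ~100 molecules were run by HPLC–quadrupole time-of-flight mass spectrometry in positive and negative ionization mode. The Zorbax Extend-C18 column (2.1 × 50 mm, 1.8 μm) ran at 100 μL/min in water and acetonitrile, each containing 0.1% formic acid, with 40 μL dead volume and 900 μL dwell volume.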

In order of falling RP-LC retention time:
1. O=C(NCc1ccc(Cl)cc1)c1c(O)c2cccnc2n(-c2ccc(F)cc2)c1=O  1230 s
2. CCOc1nc2ccccc2nc1N1CCCC(C(=O)Nc2ccccc2F)C1 (stereo unspecified)  1200 s
3. CC1Oc2ccccc2N(Cc2nc(-c3ccc(Cl)c(F)c3)no2)C1=O (stereo unspecified)  1190 s
4. CC1CCN(S(=O)(=O)c2cc(C(=O)Nc3ccc(F)c(Cl)c3)n(C)c2)CC1  1170 s
5. COc1cc(NS(=O)(=O)c2c(C)sc(C)c2-c2cc(C(F)(F)F)on2)cc(OC)c1  1140 s
6. COC(=O)C(C)Oc1cc(O)c2c(=O)cc(-c3ccccc3)oc2c1 (stereo unspecified)  1060 s
7. Cc1sc(C)c(S(=O)(=O)NCC2CCCO2)c1-c1cc(C(F)(F)F)on1 (stereo unspecified)  1020 s
8. CCc1ccc(C(C)NS(=O)(=O)c2cc3c(s2)CCN(C(=O)C2CCC2)C3)cc1 (stereo unspecified)  1020 s
9. CN(CC1(C)CCOCC1)S(=O)(=O)c1ccc(Cl)s1  976 s
10. Cc1cccc(-n2c(=O)c3c(cc(C)n3C)n(CC(=O)Nc3cccc(Cl)c3C)c2=O)c1  960 s
11. Cc1ccc(-c2ncc(C(=O)NCc3ccccc3C)c(-c3ccncc3)n2)cc1  909 s
12. COc1ccc(-n2ccc(=O)c(-c3nc(-c4ccccc4Br)no3)n2)cc1  908 s
13. O=C(NCCc1ccccc1)C1CCCN(C(=O)c2cccc(C(F)(F)F)c2)C1 (stereo unspecified)  903 s
14. CCN1CCCn2cc(S(=O)(=O)N3CCN(c4ccc(Cl)cc4)CC3)cc2C1=O  894 s
15. Cn1cccc1C(=O)C(=O)Nc1ccc(C#N)cc1  872 s
16. O=C(CC1CCCCC1)N1CCCC(COc2ccc(C(=O)N3CCOCC3)cc2)C1 (stereo unspecified)  856 s
17. CO[C@H]1C(=O)N(C(C)C)[C@H]1C1CCN(S(=O)(=O)Cc2ccccc2F)CC1  831 s
18. COc1ccccc1-c1noc(C2CCCN2C(=O)c2n[nH]c3ccccc23)n1 (stereo unspecified)  829 s
19. CCN(c1cccc(C)c1)S(=O)(=O)c1cc(-c2[nH]ncc2C(=O)N2CCCC2)oc1C  819 s
20. CNC(=O)CN(C)C(=O)c1cc2c(s1)N(CC1CC1)CCCC2  818 s
21. CCOc1ccc(S(=O)(=O)N2CCCC2C(=O)Nc2nccs2)cc1 (stereo unspecified)  818 s
22. CC(C)Cn1cc(CCNC(=O)Nc2ccc(F)cc2)c2cccnc21  812 s
23. COc1ccc(N2CCN(C(=O)c3ccc4c(c3)CC(=O)N4C)CC2)cc1  801 s
24. CCC(C)C(NC(=O)Cc1ccc(Cl)cc1)C(=O)Nc1nc2ccccc2[nH]1 (stereo unspecified)  785 s
25. Cc1ccc(CN2C(=O)COC[C@H]2C(=O)Nc2ccc3c(c2)OCCO3)cc1  780 s
26. O=C(NCc1cc(F)cc(F)c1)C1CCc2nc(N3CCCCC3)ncc2C1 (stereo unspecified)  778 s
27. Cn1cccc1Cc1nnc(SCC(=O)NCC2CCCO2)n1Cc1ccccc1 (stereo unspecified)  741 s
28. CC(C)NC(=O)c1nnc(-c2ccc(S(=O)(=O)N(C)C)cc2)o1  737 s
29. Cn1nc(C(=O)Nc2cccc3nsnc23)ccc1=O  723 s
30. CN1C(=O)CCc2cc(NS(=O)(=O)c3cccc4nsnc34)ccc21  716 s
31. CS(=O)(=O)N1CCC(OC2CCN(C(=O)c3ccccc3)CC2)CC1  709 s
32. Cc1ccc(CNC(=O)Cc2c(C(=O)O)c(C)cn2C)o1  695 s
33. CCCn1cnc2cc(-c3noc(CNC(=O)Cc4ccccc4)n3)ccc21  659 s
34. CC(Cc1ccco1)NC(=O)c1cccn(C)c1=O (stereo unspecified)  649 s
35. CCc1nnc([C@@H]2CC(F)(F)CN2C(=O)c2ocnc2C)o1  644 s
36. CCNC(=O)c1n[nH]c2c1CCCC2  641 s
37. CCC(C)NC(=O)C1CCC(=O)N(c2ccc(OC)cc2)C1c1ccc(OC)c(OC)c1 (stereo unspecified)  638 s
38. CCN(CC)C(=O)c1ccc2oc(CN3CCN(C(=O)NC(C)(C)C)CC3)nc2c1  628 s
39. CCc1ccc(C(O)CN2CCN(c3ncccn3)CC2)cc1 (stereo unspecified)  621 s
40. CCOC(=O)CNC(=O)NCCc1nc2cccnc2n1-c1ccccc1  608 s
41. Cc1cccc(CC(=O)NCCCN2CCN(c3ccccc3)CC2)c1  601 s
42. O=C(NC1CC1)c1ccccc1OC1CN(Cc2ccsc2)C1  600 s
43. N#Cc1ccc(CN2C[C@@H](CO)[C@H](c3nc(C4CC4)no3)C2)cc1  600 s
44. CCN1CCCC1CNC(=O)C1c2ccccc2C(=O)N(CCOC)C1c1cccs1 (stereo unspecified)  556 s
45. COC[C@@H]1CN(c2cnccn2)C[C@H]1C(=O)NCC#N  546 s
46. COc1ccc2[nH]c3c(c2c1)CCNC3  365 s
